Laboratory results as given in paper PMC3767384 (The Biochemical journal, 2012).

Columns and labels:
[1] = system: primary bovine retinal endothelial cells (BREC); assay: In vitro permeability assay, VEGF-induced, 70 kDa RITC-Dextran; format: cell-based; settings: siRNA transfection for 72 h, 50 ng/ml VEGF
[2] = system: visual loss in diabetic retinopathy; settings: clinical trials; cited from earlier work
PKCβ = settings: oral administration; cited from earlier work

5’-GCAAUGAACACCAGGGAAA-3’ [PKCι Construct A]
Effect on VEGF-induced increase in retinal endothelial permeability [1]: prevented the VEGF-induced increase in retinal endothelial permeability

CN(C)C[C@@H]1CCn2cc(c3ccccc32)C2=C(C(=O)NC2=O)c2cn(c3ccccc23)CCO1 [ruboxistaurin]
Effect on visual loss [2]: delays sustained moderate visual loss in diabetic retinopathy
Effect on diabetes induced-endothelial proliferation and permeability (PKCβ): prevents these pathologic outcomes
